The values below come from US9872875B2, “Component and method for treating viral disease” (Institut Pasteur of Shanghai, Chinese Academy of Sciences, priority 2012, dated 2018).

The subject of assay [1] is CVA16. Description: CVA16 infection in ICR newborn mice, viral RNA in tissues and serum. Format: in vivo. Conditions: 50 mg/kg of E02 intraperitoneally; 6 days after infection. The protocol: 5×10^6 TCID50 CVA16 viruses (50 μl) were injected to infect two three-day-old ICR newborn mice. Five days after infection, serum and tissues (brain, bone marrow, heart, intestine, kidney, liver, lung, muscle, spleen, and thymus) were collected. Viral RNA in serum was extracted (viral RNA extraction kit, QIAGEN QIAamp Viral RNA Mini Kit, cat #52906). Tissue samples were placed in RNAstore preservation solution (Tiangen, DP408-02) and stored in −80° C. refrigerator. Total tissue RNA was extracted using tissue RNA extraction kit (RNAprep pure total animal tissue RNA extraction kit). Copies of CVA16 viral genome and GAPDH gene were detected using one-step real-time quantitative RT-PCR kit (QIAGEN QuantiTect SYBR Green RT-PCR Kit) in ABI 7900HT 384-well plate PCR system. Primers are the same as that of EV71 5′UTR primers. See Table 3 and Table 4 for reaction system and PCR program. See FIG. 8 for relative viral load in each tissue and serum. Clearly, CVA16 virus was detected mainly in brain, spinal cord, muscle, and serum.
Three-day-old ICR newborn mice were infected with CVA16 to test E02's efficacy to inhibit EV71 in vivo. Test mice were divided into three groups: drug group, infection group, and placebo group. […] RNA from tissues and serum were extracted and CVA16 viral RNA determined Treatment procedures were the same as previously described in “1.”

The test system of assay [2] is EV71 clinical isolate (EV71 FY 573). Briefly: EV71 infection in ICR newborn mice, serum viral load. The class given is in vivo. The settings on record: 50 mg/kg E02 intraperitoneally; 5 days after infection; infection group average 15.0. The protocol: EV71 clinical isolate (EV71 FY 573) was used to infect three-day-old newborn ICR mice to test E02's efficacy to inhibit EV71 in vivo. Test mice were divided into three groups: drug group, infection group, and placebo group. When mice were two-day-old, drug group were intraperitoneally injected with 50 μl of E02 at a dose of 50 mg/kg. Infection group and placebo group were intraperitoneally injected with 50 μl of DMEM. When three-day-old, drug group was intraperitoneally injected with a mixture (50 μl) of E02 at a dose of 50 mg/kg and EV71 clinical isolate at a dose of 5×10^7 TCID50. Infection group was injected with a mixture of 5×10^7 TCID50 viruses (25 μl) and 25 μl of DMEM. Placebo group was injected with 50 μl of DMEM.
5 days after infection, blood was collected and serum was separated. Viral RNA in serum was extracted (viral RNA extraction kit, QIAGEN QIAamp Viral RNA Mini Kit, cat #52906). Copies of EV71 5′UTR gene and GAPDH gene were detected using one-step real-time quantitative RT-PCR kit (QIAGEN QuantiTect SYBR Green RT-PCR Kit) in ABI 7900HT 384-well plates PCR system.

The test system of assay [3] is EV71 clinical isolate SH-TS. Description: EV71 SH-TS PFU in RD cells. Format: cell-based, Enterovirus 71. The settings on record: Enterovirus A, 168 h, 5~7 days, read-out: EC50 to reduce EV71 SH-TS PFU in RD cells. The protocol:
RD cells cultured in 12-well plates were infected with EV71 SH-TS or SH-RS at different E02 concentrations. After cultured for 5˜7 days, cells were stained and plaque-forming units were calculated. Same procedure is as detailed in “3. E02 reduces EV71 plaque forming units in RD cells” of Example 1.

The subject of assay [4] is EV71 clinical isolate (EV71 FY 573). Briefly: EV71 plaque forming units in RD cells. Format: cell-based, Enterovirus 71. The settings on record: Enterovirus A, EV71 FY 573, 5-7 days, read-out: EC50 to reduce EV71 PFU in RD cells. The protocol: EV71 (clinical isolate of EV71 FY 573) was used to infect RD cells cultured in 12-well plates at different E02 concentrations. After cultured for 5 to 7 days, stained and plaque forming units were calculated. Procedures are detailed as follows:
(1) Cell seeding: 24 h prior to infection, RD cells were seeded in 12-well cell culture plates, 2×10^5 cells per well.
(2) Infection of cells: • a. Virus pre-incubated with drug: virus stock solution was in 10-fold serially diluted with DMEM to 50,000 PFU/ml, 5,000 PFU/ml, and 500 PFU/ml; and dispensed to 12-well plates at 500 μl per well, and 56 μl of E02 dissolved in DMEM at corresponding concentration was added, and incubated at 37° C. for 1 h; • b. Cells pre-incubated with drug: cell culture medium was removed from 12-well plates, each well was added 500 μl DMEM, then added 56 μl of E02 solution at corresponding concentration, and incubated at 37° C. for 1 h; • c. After 1 h incubation, drug was discarded from cell culture plates, 556 μl of virus pre-incubated with drug was transferred to cell culture plates, and incubated at 37° C. for 1 h; • d. […]
(3) After cultured for 5-7 days, gels were removed, stained with crystal violet, washed once with PBS, plaque numbers recorded and plaque forming units calculated.

For orientation: EC50 means the concentration that produces a half-maximal response. With `Cc1ccc(C(=O)Nc2ccc(S(=O)(=O)O)c3cc(S(=O)(=O)O)cc(S(=O)(=O)O)c23)cc1NC(=O)c1cccc(NC(=O)Nc2cccc(C(=O)Nc3cc(C(=O)Nc4ccc(S(=O)(=O)O)c5cc(S(=O)(=O)O)cc(S(=O)(=O)O)c45)ccc3C)c2)c1` [E02, Suramin Sodium], the “CVA16 RNA in brain, bone marrow, muscle and serum” value in assay [1] is “significantly decreased”. For the same compound, the “RNA loading ratio between EV71 and GAPDH in serum, average value of drug group” value in assay [2] was 1.8. Further, the EC50 in assay [3] is 2240 nM; in assay [4], 2600 nM.
